Experimental data taken from patent US4259332A, “Novel taurine derivatives” (priority 1979, dated 1981).

What was measured:
[1] = Toxicology, oral treatment of mice for 180 days, Compound B; type: in vivo, mouse; details: 200 mg/kg orally
[2] = Protection against hepatic intoxication by CCl4 and cold, Compound B (BSF in blood); type: in vivo; details: 500 mg/kg endoperitoneal
Experimental: Oral administration of 5 ml/kg of a 20% solution of CCl4 in oil, with simultaneous endoperitoneal administration of 500 mg/kg of Compound B, was followed by exposure for 5 hours at 4° C. BSF in the blood (30 mg/kg i.v.) was tested. A comparison product, homocysteinethiolactone (OCT) was employed.
10 Animals were treated per group, and the results expressed as percentage change with respect to the controls were as shown in Table 4.

[3] = BSF bile excretion after CCl4; type: in vivo, rat; details: 100 mg/kg endoperitoneal 4 days, CCl4 10% 10 ml/kg
Experimental: Endoperitoneal administration to rats of 100 mg/kg of Compound B for 4 days was followed on the fourth day, one hour after the last administration, with the rats receiving 10 ml/kg orally of a 10% solution of CCl4 in oil. BSF (5 mg/kg) in the bile was tested.

[4] = Curative effect on intoxication by CCl4; type: in vivo, rat; details: 100 mg/kg endoperitoneal 1 h after CCl4; BSF tested after 4 hours
Experimental: Oral administration to rats of 10 ml/kg of a 10% solution of CCl4 in oil was followed with endoperitoneal administration of 100 mg/kg of Compound B after 1 hour. BSF (50 mg/kg i.v.) in the blood was tested after 4 hours. 5 Animals were used per group, and expressed as percentage change with respect to the control, the Compound B gave a reduction of -34.2.

[5] = Intoxication by CCl4 and curative treatment; type: in vivo; details: 100 mg/kg endoperitoneal on days 1, 2 and 3
Experimental: On the first day there was oral administration of 10 ml/kg of a 10% solution of CCl4 in oil and simultaneous endoperitoneal administration of 100 mg/kg of Compound B. On the second and third days, there was endoperitoneal administration of 100 mg/kg of Compound B, then testing of BSF (50 mg/kg i.v.) in the blood.
5 Animals were used per group, and expressed as pecentage variation with respect to the control, there was a reduction by Compound B of 16.1.

[6] = Antilipemic action, Morris, Handler or Nath diet, Compound B; type: in vivo, Wistar rat; details: for Bile BSF, percentage change vs control / Liver total lipids, percentage change vs control / Serum total cholesterol, percentage change vs control / Serum total lipids, percentage change vs control / Liver fresh organic weight, percentage change vs control / Serum beta-lipoproteins, percentage change vs control: 45 days, 200 mg/kg orally
Experimental: Wistar rats were treated for 45 days with a Morris diet, a Handler diet or a Nath diet. Simultaneously with the diet they received each day 200 mg/kg of Compound B or choline (except for the Nath diet) orally.

SMILES: COc1cc(C(=O)OCCN(CCOC(=O)c2cc(OC)c(OC)c(OC)c2)CCS(=O)(=O)O)cc(OC)c1OC [Compound B, N,N-di-[2-(3,4,5-trimethoxybenzoyloxy)ethyl]taurine]
- Mortality [1]: No mortality occurred
- Hepatic intoxication protection, percentage change of BSF in blood vs controls ([2]; test number 1): -27.5%
- Hepatic intoxication protection, percentage change of BSF in blood vs controls ([2]; test number 2): -17.0%
- BSF bile excretion, percentage of excretion ([3]; 30 min.): 44.1%
- BSF bile excretion, percentage of excretion ([3]; 60 min.): 50.9%
- BSF in the blood, percentage change vs control (reduction) [4]: -34.2%
- BSF in the blood, percentage variation vs control (reduction) [5]: 16.1%
- Bile BSF, percentage change vs control ([6]; Handler diet, B and Choline): +23.4%
- Liver total lipids, percentage change vs control ([6]; Handler diet, B and Choline): -29.1%
- Serum total cholesterol, percentage change vs control ([6]; Handler diet, B and Choline): -7.3%
- Serum total lipids, percentage change vs control ([6]; Handler diet, B and Choline): +9.1%
- Liver fresh organic weight, percentage change vs control ([6]; Handler diet, second B column): -13.3%
- Liver fresh organic weight, percentage change vs control ([6]; Handler diet): -24.9%
- Liver total lipids, percentage change vs control ([6]; Handler diet): -37.7%
- Serum total cholesterol, percentage change vs control ([6]; Handler diet): -6.3%
- Serum total lipids, percentage change vs control ([6]; Handler diet): -15.9%
- Bile BSF, percentage change vs control ([6]; Morris diet): +23.8%
- Liver total lipids, percentage change vs control ([6]; Morris diet): -11.5%
- Serum beta-lipoproteins, percentage change vs control ([6]; Morris diet): -23.7%
- Serum total cholesterol, percentage change vs control ([6]; Morris diet): -23.2%
- Serum total lipids, percentage change vs control ([6]; Morris diet): -22.4%
- Liver total lipids, percentage change vs control ([6]; Nath diet): -23.4%
- Serum beta-lipoproteins, percentage change vs control ([6]; Nath diet): -29.7%
- Serum total cholesterol, percentage change vs control ([6]; Nath diet): -35.2%
- Serum total lipids, percentage change vs control ([6]; Nath diet): -20.6%
- Oral absorption (deduced from diet tests) ([6]; oral, powder with the diet): good oral absorption
